From patent US11242337B2, “Compounds useful for treating gastrointestinal tract disorders” (Ardelyx, Inc., priority 2017, dated 2022) come the findings set out here.

SMILES strings stand for the structures. Where two headings read alike, the source gives them in different places.

The subject of assay [1] is human duodenum monolayer culture. The assay can be described thus: Increased trans-epithelial resistance (TEER) in human organoid monolayer cell cultures. The format is cell-based. To be noted: 1 μM apical, baseline corrected. The procedure:
Basal media (B consisted of advanced DMEM/F12 containing 10 mM HEPES (Invitrogen, 15630-080), 1:100 Glutamax (Invitrogen, 35050-061), and 1:100 penicillin/streptomycin (Invitrogen, 15140-122). Supplemented basal media (SBM) contained 1:100 N2 (Invitrogen, 17502-048), 1:50 B27 (Invitrogen, 12587-010), 1 mM N-acetylcysteine (Sigma, A9165), and 10 nM [Leu15]-gastrin I (Sigma, G9145). Growth factors used included 50 ng per mL mouse EGF (Peprotech, 315-09), 100 ng per mL mouse noggin (Peprotech, 250-38), 500 ng per mL human R-spondin 1 (R&D, 4645-RS), 100 ng per mL mouse Wnt-3a (R&D, 1324-WN), 20 μM Y-27632 (Tocris, 1254), 10 mM nicotinamide (Sigma, N0636), 500 nM A83-01 (Tocris, 2939), 10 μM SB202190 (Tocris, 1264). Transwells were 0.4 μm pore polyester membrane 24-well Transwell inserts (Corning). Cultures were incubated at 37° C. in 5% CO2.
Human duodenum organoids were cultured in WENRNAS (Wnt, EGF, noggin, R-spondin1, Nicotinamide, A83-01, SB202190) and typically grown for 7-12 days before being used to plate monolayer cultures. On day 0, organoid cultures embedded in Matrigel were treated with TrypLE Express to break organoids into small pieces and/or single cells. The cells were resuspended to 0.5×10^6 cells/mL in SBM containing WENRAY (Wnt, EGF, noggin, R-spondin1, A83-01, Y-27632). Following this step, 200 μL of cell suspension was plated into the apical side of a 24-well Transwell (100,000 cells/well) and 600 μL of SBM with WENRAY was added to the basolateral side. Duodenum cells were differentiated with ENA (EGF, noggin, A83-01) on day 3. The color of apical compartment turns from pink or orange to yellow due to the increase in NHE3 expression after differentiation.
Each human duodenum monolayer culture well was washed twice with fresh SBM on the apical side on day 6 or day 7 before dosing. All compound stocks were 10 mM dissolved DMSO. Each compound stock was individually mixed with fresh SBM to reach final compound concentration 1 μM and dosed only on the apical side of the monolayer (total volume 200 μl). DMSO at the equivalent concentration was used as the vehicle control. Duplicate wells were dosed for each compound. Transepithelial electrical resistance (TEER) was used as a quantitative technique to measure of tight junction permeability. TEER values were recorded (MERS00002, Millipore) before dosing and 30 mins and 1 hr after dosing for all wells. Each of the duplicate TEER values following treatment were corrected for the individual well baseline TEER. Baseline corrected TEER for each example compound was compared to the average of the DMSO wells and expressed as a percent TEER of vehicle control.

Assay [2] relates to gastrointestinal transit. Nature of the assay: Restoration of gastrointestinal motility in opioid induced constipation (loperamide). The settings on record: loperamide s.c., Evans Blue small intestinal transit 30 minutes. It counts as in vivo, mice. The protocol: Approximately eight-week old, female, CD1 […] are purchased from Envigo (Livermore, Calif.), are housed 4 per cage and acclimated for at least 48 hours before study initiation. Animals are fed standard laboratory rodent chow Harlan Teklad Global 2018 (Madison, Wis.). Animals have ad libitum access to food and water for the duration of the acclimation period and are maintained in a temperature and humidity controlled room on a standard light/dark cycle of 6 AM to 6 PM. Following an overnight fast, with free access to water, animals are dosed by oral gavage with varying doses of test compound or vehicle (3 mM HCl, 0.01% Tween80), at a dose volume of 5 mL/kg. […] For an individual animal, the length travels by the Evans Blue dye front is divided by the length of the whole small intestine, measured from the pylorus to the cecum, and multiplied by 100, to provide the distance of the small intestine travelled by the dye as a percentage.

For assay [3], the system named is absorption of sodium from the intestinal lumen. The assay can be described thus: Inhibition of intestinal sodium absorption in rats. The format is in vivo, Sprague Dawley rats. To be noted: 13-hours post-dose; for response vs control in vivo at 0.03 mg/kg / response vs control in vivo at 0.1 mg/kg / response vs control in vivo at 0.3 mg/kg: Rattus norvegicus, Sprague Dawley rats, read-out: Urinary Na (% of Vehicle, out/in); for response vs control in vivo at 0.03 mg/kg: oral gavage 0.03 mg/kg; for response vs control in vivo at 0.1 mg/kg: oral gavage 0.1 mg/kg; for response vs control in vivo at 0.3 mg/kg: oral gavage 0.3 mg/kg; for FFS (1-5): rats, group median fecal form score, 1 normal pellet to 5 liquid fecal streams. The procedure:
Urinary sodium excretion and fecal form were measured to assess the ability of selected example compounds to inhibit the absorption of sodium from the intestinal lumen. Eight-week old, male, Sprague Dawley rats were purchased from Envigo (Livermore, Calif.), were housed 2 per cage and acclimated for at least 48 hours before study initiation. Animals were fed. Harlan Teklad Global TD.160470 rodent chow (Madison, Wis.), standard laboratory rodent chow Harlan Teklad Global 2018 with the addition of 0.4% inorganic phosphorous. Animals had ad libitum access to food and water for the duration of the study and were maintained in a temperature and humidity controlled room on a standard light/dark cycle of 6 AM to 6 PM. On the day of study initiation, rats (n=5/group) were dosed by oral gavage with test compound or vehicle (3 mM HCl, 0.01% Tween80) at a dose volume of […]. Immediately after dose administration animals were placed in individual metabolic cages. At 13-hours post-dose, urine samples were collected and fecal form was assessed. In addition, the weight of food consumed over the 13-hour period was measured and recorded. Fecal forms were scored according to a common scale associated with increasing fecal water to the wettest observation in the cage's collection funnel (1, normal pellet; 2, pellet adhering to sides of collection funnel due to moisture; 3, loss of normal pellet shape; 4, complete loss of shape with a blotting pattern; 5, liquid fecal streams evident). Fecal form score (FFS) was calculated for each group as the median of each individual rat's FFS within the group and reported in Table 7. Fecal samples were dried using a lyophilizer for at least 3 days, following which dry weight was recorded and fecal fluid content was calculated based on the difference between the wet and dry stool weights. Fecal fluid content was calculated as a change from the vehicle group mean. For urine samples, the volumes were determined gravimetrically. Urine samples were analyzed on an ion chromatography system (Thermo Fisher ICS-3000 or ICS-5000+) coupled with conductivity detectors. Chromatographic separation of cations was performed using an IonPac CS12A (Thermo Fisher) 2×250 mm analytical column with an isocratic elution using 25 mM methanesulfonic acid. Concentrations were interpolated from a standard curve (prepared in 10 mM HCl) for sodium based on retention time and peak area. Thirteen-s-hour urinary sodium excretion (mg/13-hours) was calculated by multiplying urinary sodium concentration by 13-hour urine volume. The urinary sodium excretion of compound treatment was normalized to dietary sodium intake and expressed as a percentage of the vehicle mean.

Setting [4] is: 1 hr after dosing, read-out: TEER at 60 minutes (% of Vehicle).
Setting [5] is: 0.5 h, 30 mins after dosing, read-out: TEER at 30 minutes (% of Vehicle).

For the compound `N#Cc1cc(Cl)cc2c1C[C@H](N1CCNCC1)[C@H]2Oc1ccc(S(=O)(=O)NCCOCCOCCNC(=O)NCCCCNC(=O)NCCOCCOCCNS(=O)(=O)c2ccc(O[C@H]3c4cc(Cl)cc(C#N)c4C[C@@H]3N3CCNCC3)c(F)c2)cc1F` [Example 43, 3-[2-(2-[2-[(4-[[(1S,2S)-6-Chloro-4-cyano-2-(piperazin-1-yl)-2,3-dihydro-1H-inden-1-yl]oxy]-3-fluorobenzene)sulfonamido]ethoxy]ethoxy)ethyl]-1-[4-([[2-(2-[2-[(4-[[(1S,2S)-6-chloro-4-cyano-2-(piperazin-1-yl)-2,3-dihydro-1H-inden-1-yl]oxy]-3-fluorobenzene)sulfonamido]ethoxy]ethoxy)ethyl]carbamoyl]amino)butyl]urea; bis(trifluoroacetic acid)], the activity at 1 µM in assay [1] (setting [4]) and in assay [1] (setting [5]) was 100 to 130% each time. Besides, the “% Restoration of Transit” value in assay [2] (oral gavage 1.5 mg/kg) is recorded as “B (20-40%)”; in assay [2] (oral gavage 5 mg/kg), “A (<20%)”; in assay [2] (oral gavage 15 mg/kg), “A (<20%)”.

As for `N#Cc1cc(Cl)cc2c1C[C@H](N1CCNCC1)[C@H]2Oc1ccc(S(=O)(=O)NC2CCN(CCOCCNC(=O)NCCCCNC(=O)NCCOCCN3CCC(NS(=O)(=O)c4ccc(O[C@H]5c6cc(Cl)cc(C#N)c6C[C@@H]5N5CCNCC5)cc4)CC3)CC2)cc1` [Example 123, 4-([(1S,2S)-6-Chloro-4-cyano-2-(piperazin-1-yl)-2,3-dihydro-1H-inden-1-yl]oxy)-N-[1-(20-[4-([4-([(1S,2S)-6-chloro-4-cyano-2-(piperazin-1-yl)-2,3-dihydro-1H-inden-1-yl]oxy)phenyl]sulfonamide]piperidin-1-yl)-7,14-dioxo-3,18-dioxa-6,8,13,15-tetraazaicosyl]piperidin-4-yl)benzenesulfonamide], in assay [3], the response vs control in vivo at 0.03 mg/kg is more than 70%, the response vs control in vivo at 0.1 mg/kg lay within 40 to 70% and the response vs control in vivo at 0.3 mg/kg was less than 40%. Also, the “FFS (1-5)” value in assay [3] (0.03 mg/kg) was determined as 3. Moreover, the “FFS (1-5)” value in assay [3] (0.1 mg/kg) was determined as 3. In addition, the “FFS (1-5)” value in assay [3] (0.3 mg/kg) worked out at 3. Moreover, the “% Restoration of Transit” value in assay [2] (oral gavage 15 mg/kg) was “A (<20%)”.

With `C[C@@H]1CN([C@H]2Cc3c(C#N)cc(Cl)cc3[C@@H]2Oc2ccc(S(=O)(=O)N[C@H]3CCN(CCOCCNC(=O)NCCCCNC(=O)NCCOCCN4CC[C@H](NS(=O)(=O)c5ccc(O[C@H]6c7cc(Cl)cc(C#N)c7C[C@@H]6N6CCN[C@H](C)C6)cc5)C4)C3)cc2)CCN1` [Example 132, 4-([(1S,2S)-6-Chloro-4-cyano-2-[(R)-3-methylpiperazin-1-yl]-2,3-dihydro-1H-inden-1-yl]oxy)-N—[(S)-1-(20-[(S)-3-([4-([(1S,2S)-6-chloro-4-cyano-2-[(R)-3-methylpiperazin-1-yl]-2,3-dihydro-1H-inden-1-yl]oxy)phenyl]sulfonamido)pyrrolidin-1-yl]-7,14-diaxo-3,18-dioxa-5,8,13,15-tetraazaicosyl)pyrrolidin-3-yl]benzenesulfonamide; bis(trifluoroacetic acid)], in assay [3], the response vs control in vivo at 0.03 mg/kg is more than 70%, the response vs control in vivo at 0.1 mg/kg lay within 40 to 70% and the response vs control in vivo at 0.3 mg/kg was less than 40%. Moreover, the “FFS (1-5)” value in assay [3] (0.03 mg/kg) is listed as 3. For the same compound, the “FFS (1-5)” value in assay [3] (0.1 mg/kg) is reported as 3. In addition, the “FFS (1-5)” value in assay [3] (0.3 mg/kg) amounted to 3. Also, the “% Restoration of Transit” value in assay [2] (oral gavage 15 mg/kg) is “C (>40%)”.

As to `N#Cc1cc(Cl)cc2c1C[C@H](N1CCNCC1)[C@H]2Oc1ccc(S(=O)(=O)N[C@H]2CCN(CCOCCNC(=O)NCCCCNC(=O)NCCOCCN3CC[C@H](NS(=O)(=O)c4ccc(O[C@H]5c6cc(Cl)cc(C#N)c6C[C@@H]5N5CCNCC5)cc4)C3)C2)cc1` [Example 107, 4-([(1S,2S)-6-Chloro-4-cyano-2-(piperazin-1-yl)-2,3-dihydro-1H-inden-1-yl]oxy)-N—[(S)-1-(20-[(S)-3-([4-([(1S,2S)-6-chloro-4-cyano-2-(piperazin-1-yl)-2,3-dihydro-1H-inden-1-yl]oxy)phenyl]sulfonamido)pyrrolidin-1-yl]-7,14-dioxo-3,18-dioxa-6,8,13,15-tetraazaicosyl)pyrrolidin-3-yl]benzenesulfonamide; tetra(trifluoroacetate)], the activity at 1 µM in assay [1] (setting [4]) was 100 to 130%; in assay [1] (setting [5]), more than 130%. For the same compound, the response vs control in vivo at 0.03 mg/kg in assay [3] lay in the range of 40 to 70%. Besides, in assay [3], the response vs control in vivo at 0.1 mg/kg was in the range of 40 to 70%. Further, in assay [3], the response vs control in vivo at 0.3 mg/kg was less than 40%. For the same compound, the “FFS (1-5)” value in assay [3] (0.03 mg/kg), in assay [3] (0.1 mg/kg) and in assay [3] (0.3 mg/kg) was 3 in each case.

Take `N#Cc1cc(Cl)cc2c1C[C@H](N1CCCNCC1)[C@H]2Oc1ccc(S(=O)(=O)N[C@H]2CCN(CCOCCNC(=O)NCCCCNC(=O)NCCOCCN3CC[C@H](NS(=O)(=O)c4ccc(O[C@H]5c6cc(Cl)cc(C#N)c6C[C@@H]5N5CCCNCC5)cc4)C3)C2)cc1` [Example 126, 4-([(1S,2S)-6-Chloro-4-cyano-2-(1,4-diazepan-1-yl)-2,3-dihydro-1H-inden-1-yl]oxy)-N—[(S)-1-(20-[(S)-3-([4-([(1S,2S)-6-chloro-4-cyano-2-(1,4-diazepan-1-yl)-2,3-dihydro-1H-inden-1-yl]oxy)phenyl]sulfonamido)pyrrolidin-1-yl]-7,14-dioxo-3,18-dioxa-6,8,13,15-tetraazaicosyl)pyrrolidin-3-yl]benzenesulfonamide]: the activity at 1 µM in assay [1] (setting [4]) and in assay [1] (setting [5]) was 100 to 130% throughout.
